For data set [1], the system named is CHO. Kind of data set: Selectivity ratio of Ki for recombinant human adenosine A3 receptor expressed in CHO cell membrane to Ki for recombinant human adenosine A2A receptor expressed in CHO cell membrane. The data set is classed as cell-based.
Another data set concerns the target T1, Adenosine receptor A2b (Homo sapiens, UniProt P29275).
T1 sequence (P29275 whole entry): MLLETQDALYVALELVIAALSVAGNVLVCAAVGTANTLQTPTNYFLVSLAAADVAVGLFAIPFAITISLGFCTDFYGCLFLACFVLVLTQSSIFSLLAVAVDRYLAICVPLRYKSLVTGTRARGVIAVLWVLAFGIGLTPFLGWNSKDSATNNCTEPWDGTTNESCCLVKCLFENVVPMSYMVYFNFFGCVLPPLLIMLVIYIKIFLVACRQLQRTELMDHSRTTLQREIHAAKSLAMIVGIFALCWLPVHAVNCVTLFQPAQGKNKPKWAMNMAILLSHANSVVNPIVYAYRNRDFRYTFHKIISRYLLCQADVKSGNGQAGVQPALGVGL
Kind of data set: Antagonist activity at recombinant human adenosine A2B receptor expressed in CHOK1 cell membrane assessed as inhibition of NECA-stimulated adenylyl cyclase activity incubated for 20 mins in presence of [alpha32P]ATP. In kind it is functional, cell-based, CHO-K1.

The target of data set [2] is T2, Adenosine receptor A2a (Homo sapiens, UniProt P29274). The data set can be described thus: Partial agonist activity at recombinant human adenosine A2A receptor expressed in CHOK1 cell membrane assessed as adenylyl cyclase activity at 100 uM incubated for 20 mins in presence of [alpha32P]ATP relative to NECA. In kind it is functional, cell-based. The following applies: CHO-K1.

Data set [3] can be described thus: Thermodynamic equilibrium solubility of compound in water at 1 to 300 ug after overnight incubation by microplate reader analysis. The following applies: read-out: Therm_solubility. The data set is classed as physicochemical.
The target in another data set is T3, Adenosine receptor A1 (Homo sapiens, UniProt P30542).
T3 sequence (P30542 whole entry): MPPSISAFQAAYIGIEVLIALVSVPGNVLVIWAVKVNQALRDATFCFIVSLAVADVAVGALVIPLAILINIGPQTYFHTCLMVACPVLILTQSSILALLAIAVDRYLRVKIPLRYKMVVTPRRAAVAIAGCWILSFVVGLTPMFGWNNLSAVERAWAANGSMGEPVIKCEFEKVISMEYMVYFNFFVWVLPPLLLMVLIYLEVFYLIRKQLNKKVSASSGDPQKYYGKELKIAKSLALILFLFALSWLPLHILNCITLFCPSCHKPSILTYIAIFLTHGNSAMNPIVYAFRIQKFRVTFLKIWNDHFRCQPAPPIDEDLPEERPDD
The data set can be described thus: Displacement of [3H]CCPA from recombinant human adenosine A1 receptor expressed in CHO cell membrane after 3 hrs by microbeta scintillation counting method. In kind it is cell membranes. A general note: In a radioligand displacement assay an active substance lowers the binding of a labelled ligand.

The target of the next data set is T4, Adenosine receptor A3 (Homo sapiens, UniProt P0DMS8).
T4 sequence (P0DMS8 whole entry): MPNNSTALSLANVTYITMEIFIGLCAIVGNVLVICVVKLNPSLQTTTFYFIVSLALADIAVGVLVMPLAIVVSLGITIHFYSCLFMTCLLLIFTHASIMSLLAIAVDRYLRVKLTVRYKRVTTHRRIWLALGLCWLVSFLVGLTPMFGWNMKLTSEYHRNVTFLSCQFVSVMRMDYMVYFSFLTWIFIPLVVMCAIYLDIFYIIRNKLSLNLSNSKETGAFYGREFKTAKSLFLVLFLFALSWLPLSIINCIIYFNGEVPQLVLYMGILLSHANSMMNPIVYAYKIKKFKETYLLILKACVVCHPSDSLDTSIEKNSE
Kind of data set: biochemical.

The target in data set [4] is T2, Adenosine receptor A2a. The data set can be described thus: Displacement of [3H]NECA from recombinant human adenosine A2A receptor expressed in CHO cell membrane after 3 hrs by microbeta scintillation counting method. In kind it is cell membranes.
In data set [5] the test system is CHO. Kind of data set: Selectivity ratio of Ki for recombinant human adenosine A1 receptor expressed in CHO cell membrane to Ki for recombinant human adenosine A2A receptor expressed in CHO cell membrane. In kind it is cell-based.
A short description of data set [6]: Thermodynamic equilibrium solubility of compound in simulated gastric fluid at 1 to 300 ug after overnight incubation by microplate reader analysis. In kind it is ADME. The following applies: read-out: Therm_solubility.
Data set [7] can be described thus: Thermodynamic equilibrium solubility of compound in phosphate buffered saline at 1 to 300 ug after overnight incubation by microplate reader analysis. The data set is classed as physicochemical. The following applies: read-out: Therm_solubility.
Data set [8] addresses T2, Adenosine receptor A2a. The data set can be described thus: Partial agonist activity at recombinant human adenosine A2A receptor expressed in CHOK1 cell membrane assessed as adenylyl cyclase activity at 1 to 100 uM incubated for 20 mins in presence of [alpha32P]ATP relative to NECA. The data set is classed as functional, cell-based. The following applies: CHO-K1.

A word on the Ki: it is a dissociation constant, usually derived from enzyme kinetics or from competition with a known ligand.

Structures are written as SMILES. Converted amounts (≈) assume the structure as drawn.

T2 sequence (P29274 whole entry): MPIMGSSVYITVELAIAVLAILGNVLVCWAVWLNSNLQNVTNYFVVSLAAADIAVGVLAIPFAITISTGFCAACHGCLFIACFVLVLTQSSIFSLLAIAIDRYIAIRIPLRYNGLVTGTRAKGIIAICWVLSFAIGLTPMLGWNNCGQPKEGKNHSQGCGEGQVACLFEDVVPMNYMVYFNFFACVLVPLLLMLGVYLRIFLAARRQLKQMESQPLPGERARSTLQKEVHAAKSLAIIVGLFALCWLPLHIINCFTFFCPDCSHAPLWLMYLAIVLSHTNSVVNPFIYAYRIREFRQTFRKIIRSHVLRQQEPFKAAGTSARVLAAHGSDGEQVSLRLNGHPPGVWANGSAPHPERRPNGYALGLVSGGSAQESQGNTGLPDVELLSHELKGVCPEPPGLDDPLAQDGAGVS
Description for Adenosine receptor A3: Displacement of [3H]HEMADO from recombinant human adenosine A3 receptor expressed in CHO cell membrane after 3 hrs by microbeta scintillation counting method

Take `OC[C@@H]1CCCN1c1ncnc2sc(Nc3cccc(Br)c3)nc12`: the Ratio Ki with CHO [1] and with CHO [5] was 3 each time. Besides, the inhibition constant (Ki) on Adenosine receptor A2b was more than 10 µM; at Adenosine receptor A1, 530 nM; on Adenosine receptor A3, 1070 nM; at Adenosine receptor A2a [4], 153 nM. At Adenosine receptor A2a [2], the Efficacy stood at 50%. Moreover, the solubility thermodynamic in data set [3] is 160 µg/mL (≈ 0.394 mM).

On to `OC[C@@H]1CCCN1c1ncnc2sc(Nc3ccccc3)nc12`, for which the Ratio Ki in the data set with CHO [1] and with CHO [5] was 3 each time. Besides, the solubility thermodynamic in [6] was 3500 µg/mL (≈ 10.7 mM); in [3], 4300 µg/mL (≈ 13.1 mM); in [7], 4800 µg/mL (≈ 14.7 mM). The Ki was more than 10 µM on Adenosine receptor A2b, 555 nM on Adenosine receptor A1, 978 nM on Adenosine receptor A3 and 200 nM at Adenosine receptor A2a [4]. Moreover, the Efficacy on Adenosine receptor A2a [2] came to 50%.

For the molecule `Cc1ccc(Nc2nc3c(N4CCCC4)ncnc3s2)cc1`, the Ki was more than 10 µM at Adenosine receptor A2b, more than 100000 nM at Adenosine receptor A1, 563 nM at Adenosine receptor A3 and 974 nM on Adenosine receptor A2a [4]. Further, in data set [3], the solubility thermodynamic was more than 150 µg/mL. For the same molecule, on Adenosine receptor A2a [8], the Efficacy is 10%.

The record behind these values is ChEMBL document CHEMBL3826933, “Discovery of 7-(Prolinol-N-yl)-2-phenylamino-thiazolo[5,4-d]pyrimidines as Novel Non-Nucleoside Partial Agonists for the A2A Adenosine Receptor: Prediction from Molecular Modeling” (J Med Chem, 2016).
